Test results as given in patent US4618622A, “Sulfonates of hydroxycoumarins” (priority 1982, dated 1986).

Experiments:
Monoaminoxidase A [1] = target: T1, Monoaminoxidase A (Rattus norvegicus, UniProt P21396); assay: biochemical; conditions: read-out: Monoaminoxidase inhibition IC50
T1 sequence (P21396 1-526): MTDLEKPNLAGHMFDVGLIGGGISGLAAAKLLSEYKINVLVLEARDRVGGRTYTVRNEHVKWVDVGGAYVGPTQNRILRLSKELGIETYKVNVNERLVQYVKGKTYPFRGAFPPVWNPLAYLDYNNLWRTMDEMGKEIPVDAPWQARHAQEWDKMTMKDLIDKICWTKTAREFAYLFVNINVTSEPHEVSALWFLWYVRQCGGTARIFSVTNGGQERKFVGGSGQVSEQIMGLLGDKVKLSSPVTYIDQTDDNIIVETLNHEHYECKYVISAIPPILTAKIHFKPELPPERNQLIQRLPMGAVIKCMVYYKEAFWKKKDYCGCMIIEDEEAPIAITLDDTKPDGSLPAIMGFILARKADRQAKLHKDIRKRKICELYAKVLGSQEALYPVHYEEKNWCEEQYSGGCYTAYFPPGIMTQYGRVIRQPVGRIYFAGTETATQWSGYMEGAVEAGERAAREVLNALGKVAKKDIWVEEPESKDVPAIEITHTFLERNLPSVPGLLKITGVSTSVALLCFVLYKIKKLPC
Method: Monoaminoxidase A is determined in dilute rat brain homogenate to which
1. various concentrations of the test substances and
2. ^14 C-tryptamine in a concentration of 0.4 μmol/liter are added. This mixture is incubated at 37° C. for 20 minutes, after which the reaction is terminated by means of aqueous 0.1N HCl, and the products are extracted with toluene scintillator (PPO+POPOP in toluene) and then determined. The blank value is determined in similar mixtures for an incubation time of t=0 minutes.
The mean inhibitory concentration (IC50) is calculated from the inhibitory values determined, in comparison with the control, at the various inhibitor concentrations, by means of a linear regression after logit-log transformation.

[2] = system: reserpine-induced hypothermia; assay: Antidepressant action: inhibition of reserpine-induced hypothermia (reserpine test); assay type: in vivo, mouse (male, Swiss strain); conditions: oral administration, 60 minutes before reserpine 2.15 mg/kg s.c.; mouse; temperature 2 hours after; read-out: Antidepressant action (mouse) ED50
Method: The test substances are administered orally, 60 minutes before the reserpine.

Monoaminoxidase A [3] = target: T1, Monoaminoxidase A; conditions: in words, known for the comparative substance; cited from earlier work

## C#CCN(C)Cc1ccccc1 [Pargyline, reference compound]
Monoaminoxidase A [1]
  IC50: 2 µM
[2]
  ED50: 48 mg/kg
Monoaminoxidase A [3]
  action mechanism (known): inhibition of monoaminoxidase A
